# Measured values from patent US20080124809A1, “Method of Interaction Observation” (RIKEN, priority 2004, published 2008).
# What was measured:
# anti-DIG antibody = assay: SPR imaging of anti-DIG antibody binding to the immobilized small molecular array; settings: 4 J/cm^2; for binding of anti-DIG antibody to immobilized substance (FIG. 15): Comparative Example 2: irradiated at 245 nm, 50 μg/mL antibody run for 5 minutes; for binding of anti-DIG antibody to immobilized substance (FIG. 12): Example 1: photoimmobilized at 365 nm, 50 μg/mL antibody
# anti-EST antibody = assay: SPR imaging of anti-EST antibody binding to the immobilized small molecular array; settings: Example 1: photoimmobilized at 365 nm, 4 J/cm^2; 50 μg/mL antibody
SMILES,binding of anti-DIG antibody to immobilized substance (FIG. 15) (anti-DIG antibody),binding of anti-DIG antibody to immobilized substance (FIG. 12) (anti-DIG antibody),binding of anti-EST antibody to immobilized substance (FIG. 13) (anti-EST antibody)
"C[C@H]1O[C@@H](O[C@H]2[C@@H](O)C[C@H](O[C@H]3[C@@H](O)C[C@H](O[C@H]4CC[C@@]5(C)[C@H](CC[C@@H]6[C@@H]5C[C@@H](O)[C@]5(C)[C@@H](C7=CC(=O)OC7)CC[C@]65O)C4)O[C@@H]3C)O[C@@H]2C)C[C@H](O)[C@@H]1O [DIG, digoxin]",observed,obvious,–
"C[C@H]1O[C@@H](O[C@H]2[C@@H](O)C[C@H](O[C@H]3[C@@H](O)C[C@H](O[C@H]4CC[C@@]5(C)[C@H](CC[C@@H]6[C@@H]5CC[C@]5(C)[C@@H](C7=CC(=O)OC7)CC[C@]65O)C4)O[C@@H]3C)O[C@@H]2C)C[C@H](O)[C@@H]1O [DTN, digitoxin]",observed,obvious,–
"C[C@]12CC[C@@H]3c4ccc(O)cc4CC[C@H]3[C@@H]1CC[C@@H]2O [EST, β-Estradiol]",–,–,bound to only the spots of EST
"C[C@]12CCC(=O)C=C1CC[C@@H]1[C@@H]2[C@@H](O)C[C@@]2(C)[C@H]1CC[C@]2(O)C(=O)CO [HCN, Hydrocortisone]",–,–,No binding
"CC(=O)[C@H]1CC[C@H]2[C@@H]3CCC4=CC(=O)CC[C@]4(C)[C@H]3CC[C@]12C [PGS, Progesterone]",–,–,No binding
